Laboratory results taken from PMC11930985 (Nature Communications, 2025).
Converted amounts (≈) assume the structure as drawn. “And” between values parts separate entries of the source, which are not always exact repeats. Identical values can stand only once.

Legend:
pSTAT5 Y694 = assay: CyTOF maximal inhibition in Undefined/Immature Myeloid cells: pSTAT5; format: in vivo, human
Description: Pharmacodynamic endpoints included the measurement of inhibition of pAXL, pERK, pAKT, pS6 and pSTAT1/3/5 in blast cells (defined as cells with abnormal surface marker expression as compared to healthy donor peripheral blood mononuclear cells and undefined/immature myeloid cells (defined as cells carrying myeloid markers but lacking distinguishing terminal differentiation markers). Mass cytometry time of flight (CyTOF) was used for the determination of the pharmacodynamic markers using a previously validated and tested panel of mass-tagged antibodies[39],[40]. The antibodies in the panel are listed in Supplementary Table 5. Briefly, fixed leukocytes from peripheral blood were barcoded using a 20-plex metal barcoding kit (Standard Biotools, Cell-ID 201060) according to manufacturer’s protocol, allowing all the samples from a single individual to be stained and analysed in parallel. All analysis runs included barcoded peripheral blood mononuclear cells (PBMCs) from at least one healthy donor and an identical barcoded reference sample (mix of PBMCs from six healthy donors). […]
For each population, marker, and sample, the 95th percentile of the non-transformed expression values was calculated. […]

Yes = target: Yes; set-up: method as in Investigator's Brochure (IB) version 5.0; settings: ref Investigator's Brochure (IB) version 5.0; cited from earlier work

Nc1nc(Nc2ccc3c(c2)CC[C@@H](N2CCCC2)CC3)nn1-c1cc2c(nn1)-c1ccccc1CCC2 [Bemcentinib]
EC50 (pSTAT5 Y694; Homo sapiens, Undefined/Immature Myeloid cells, N = 12 patients, read-out: EC50 (± standard error), pSTAT5 Y694 inhibition): 0.0913 ± 0.0014 µg/mL (≈ 0.18 µM) | Maximum inhibition (percent) pSTAT5 (Y694) (pSTAT5 Y694; Supplementary Figure 1b, individual patients): 86.7% and 72.9% and 100% and 27.9% and 21.4% and 51.2% and 0% and 36% and 58.4% | Kd (Yes): 810 nM
